Measured values taken from ChEMBL document CHEMBL5465560, “Selectivity Literature for EUbOPEN Chemogenomic Library” (2024).

Legend:
[1] = biological target: Calcium/calmodulin-dependent protein kinase type II subunit beta (Homo sapiens) (UniProt Q13554); assay: Selectivity interaction (KinomeScan (DiscoverX)) EUB0000666a CAMK2B; settings: at 10 µM
[2] = biological target: T1, Histone-arginine methyltransferase CARM1 (Homo sapiens) (UniProt Q86X55); assay: Selectivity interaction (Transferase panel (protein, RNA, and DNA methyltransferases. and EP300 (acetyltransferase))) EUB0000270b CARM1
T1 sequence (whole entry): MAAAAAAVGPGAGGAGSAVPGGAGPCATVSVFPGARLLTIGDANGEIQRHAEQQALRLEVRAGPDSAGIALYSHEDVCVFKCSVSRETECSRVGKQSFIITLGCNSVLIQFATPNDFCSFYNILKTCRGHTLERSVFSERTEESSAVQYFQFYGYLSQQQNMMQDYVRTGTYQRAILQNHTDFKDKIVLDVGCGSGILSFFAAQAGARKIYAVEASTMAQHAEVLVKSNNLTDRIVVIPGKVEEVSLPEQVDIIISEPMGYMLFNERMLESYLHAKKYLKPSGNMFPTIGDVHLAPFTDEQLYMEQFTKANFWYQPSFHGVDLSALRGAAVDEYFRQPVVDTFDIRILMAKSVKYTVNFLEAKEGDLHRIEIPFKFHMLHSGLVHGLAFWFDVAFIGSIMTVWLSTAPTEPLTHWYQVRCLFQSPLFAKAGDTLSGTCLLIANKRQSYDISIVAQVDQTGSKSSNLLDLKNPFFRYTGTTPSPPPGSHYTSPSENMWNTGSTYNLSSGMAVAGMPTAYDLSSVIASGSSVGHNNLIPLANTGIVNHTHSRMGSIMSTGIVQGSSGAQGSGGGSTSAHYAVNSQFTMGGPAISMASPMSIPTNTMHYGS

[3] = biological target: T2, Phosphatidylinositol 3-kinase C2 domain-containing subunit gamma (Homo sapiens) (UniProt O75747); assay: Selectivity interaction (KinomeScan (DiscoverX)) EUB0000607a PIK3C2G; settings: at 10 µM
T2 sequence (whole entry): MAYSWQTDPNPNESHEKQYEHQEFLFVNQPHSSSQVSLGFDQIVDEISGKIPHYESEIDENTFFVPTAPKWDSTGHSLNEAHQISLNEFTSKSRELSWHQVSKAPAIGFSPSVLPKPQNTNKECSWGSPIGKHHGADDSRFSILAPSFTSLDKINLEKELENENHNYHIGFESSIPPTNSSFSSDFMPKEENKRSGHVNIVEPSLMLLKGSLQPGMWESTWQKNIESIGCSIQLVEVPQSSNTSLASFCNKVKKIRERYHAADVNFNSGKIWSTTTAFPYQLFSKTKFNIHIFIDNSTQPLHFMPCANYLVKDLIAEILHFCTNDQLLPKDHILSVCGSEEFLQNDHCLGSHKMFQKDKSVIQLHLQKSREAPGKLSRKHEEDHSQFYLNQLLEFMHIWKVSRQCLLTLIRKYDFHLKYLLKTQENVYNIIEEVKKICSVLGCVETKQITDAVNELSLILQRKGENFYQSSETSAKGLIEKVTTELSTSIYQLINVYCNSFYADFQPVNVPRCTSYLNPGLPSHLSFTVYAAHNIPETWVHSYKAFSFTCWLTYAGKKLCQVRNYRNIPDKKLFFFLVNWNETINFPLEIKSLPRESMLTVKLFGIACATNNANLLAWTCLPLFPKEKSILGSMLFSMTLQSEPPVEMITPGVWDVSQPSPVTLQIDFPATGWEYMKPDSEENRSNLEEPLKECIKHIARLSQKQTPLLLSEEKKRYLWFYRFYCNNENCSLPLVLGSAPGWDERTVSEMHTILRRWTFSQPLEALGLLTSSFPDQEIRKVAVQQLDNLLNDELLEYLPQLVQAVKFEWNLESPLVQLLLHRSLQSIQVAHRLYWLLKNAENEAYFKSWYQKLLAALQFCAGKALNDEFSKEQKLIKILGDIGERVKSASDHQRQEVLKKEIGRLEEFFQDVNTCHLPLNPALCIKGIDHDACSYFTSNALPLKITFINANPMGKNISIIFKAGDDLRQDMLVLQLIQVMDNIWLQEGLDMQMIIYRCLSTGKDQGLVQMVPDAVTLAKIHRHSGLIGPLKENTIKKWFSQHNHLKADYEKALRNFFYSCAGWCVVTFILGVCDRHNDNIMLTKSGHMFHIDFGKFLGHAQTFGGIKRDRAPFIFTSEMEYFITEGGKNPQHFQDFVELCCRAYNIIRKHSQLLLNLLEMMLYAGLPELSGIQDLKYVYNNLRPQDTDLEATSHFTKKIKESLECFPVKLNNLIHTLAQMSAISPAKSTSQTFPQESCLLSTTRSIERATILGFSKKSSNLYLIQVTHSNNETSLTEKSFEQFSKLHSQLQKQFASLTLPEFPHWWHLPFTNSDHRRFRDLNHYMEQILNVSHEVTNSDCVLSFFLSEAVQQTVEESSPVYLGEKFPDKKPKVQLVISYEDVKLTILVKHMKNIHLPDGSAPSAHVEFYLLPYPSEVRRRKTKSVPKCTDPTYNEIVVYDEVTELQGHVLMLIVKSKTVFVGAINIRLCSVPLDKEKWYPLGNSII

[4] = biological target: Serine/threonine-protein kinase MARK1 (Homo sapiens) (UniProt Q9P0L2); assay: Selectivity interaction (ActivX KiNativ screen (kinase selectivity in THP-1 cell lysates)) EUB0000639a MARK1; assay type: subcellular; settings: lysate
Serine/threonine-protein kinase MARK1 (Homo sapiens), sequence (Q9P0L2 whole entry, looked up): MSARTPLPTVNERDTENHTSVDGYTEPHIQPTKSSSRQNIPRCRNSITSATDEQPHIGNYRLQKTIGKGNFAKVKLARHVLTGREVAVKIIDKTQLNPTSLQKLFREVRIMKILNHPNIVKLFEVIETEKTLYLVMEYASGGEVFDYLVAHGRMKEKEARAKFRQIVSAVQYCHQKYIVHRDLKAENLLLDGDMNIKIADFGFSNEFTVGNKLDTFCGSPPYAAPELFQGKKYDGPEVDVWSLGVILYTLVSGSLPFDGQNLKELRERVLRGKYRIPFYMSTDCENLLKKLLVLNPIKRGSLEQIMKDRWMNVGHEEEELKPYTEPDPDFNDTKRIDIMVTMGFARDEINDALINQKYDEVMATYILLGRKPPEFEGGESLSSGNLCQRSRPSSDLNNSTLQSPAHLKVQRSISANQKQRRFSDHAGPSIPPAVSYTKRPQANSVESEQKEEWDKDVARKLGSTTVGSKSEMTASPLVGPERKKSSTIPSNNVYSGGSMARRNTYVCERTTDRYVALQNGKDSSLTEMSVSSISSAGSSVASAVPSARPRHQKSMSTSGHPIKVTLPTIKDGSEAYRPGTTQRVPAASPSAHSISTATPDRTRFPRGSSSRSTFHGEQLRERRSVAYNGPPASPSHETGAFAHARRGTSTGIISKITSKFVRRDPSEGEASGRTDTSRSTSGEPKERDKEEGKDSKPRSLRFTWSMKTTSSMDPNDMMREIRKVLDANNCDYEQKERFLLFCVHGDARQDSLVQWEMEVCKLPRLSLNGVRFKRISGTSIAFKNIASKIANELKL

[5] = biological target: T3, Interleukin-1 receptor-associated kinase 3 (Homo sapiens) (UniProt Q9Y616); assay: Selectivity interaction (Ambit KINOMEscan and KiNATiv profiling in Jurkat cells) EUB0000090b IRAK3; assay type: cell-based; settings: at 1 µM
T3 sequence (whole entry): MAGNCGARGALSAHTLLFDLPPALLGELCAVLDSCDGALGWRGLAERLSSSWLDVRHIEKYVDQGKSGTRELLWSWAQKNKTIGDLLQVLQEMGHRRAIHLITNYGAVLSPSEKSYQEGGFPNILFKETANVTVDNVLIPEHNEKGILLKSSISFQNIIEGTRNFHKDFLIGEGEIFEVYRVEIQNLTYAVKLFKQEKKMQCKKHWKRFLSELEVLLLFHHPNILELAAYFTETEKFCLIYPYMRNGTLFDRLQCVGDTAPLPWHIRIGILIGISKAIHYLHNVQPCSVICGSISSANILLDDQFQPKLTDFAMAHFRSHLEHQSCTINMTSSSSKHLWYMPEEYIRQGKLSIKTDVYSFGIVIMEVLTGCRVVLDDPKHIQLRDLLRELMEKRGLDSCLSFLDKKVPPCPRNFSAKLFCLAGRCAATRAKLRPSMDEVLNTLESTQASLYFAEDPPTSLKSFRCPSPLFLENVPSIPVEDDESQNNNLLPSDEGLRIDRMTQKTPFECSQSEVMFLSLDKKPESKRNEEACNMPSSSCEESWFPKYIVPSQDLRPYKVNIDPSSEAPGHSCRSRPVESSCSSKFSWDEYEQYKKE

Calcium/calmodulin-dependent protein kinase type II subunit beta (Homo sapiens), sequence (Q13554 whole entry): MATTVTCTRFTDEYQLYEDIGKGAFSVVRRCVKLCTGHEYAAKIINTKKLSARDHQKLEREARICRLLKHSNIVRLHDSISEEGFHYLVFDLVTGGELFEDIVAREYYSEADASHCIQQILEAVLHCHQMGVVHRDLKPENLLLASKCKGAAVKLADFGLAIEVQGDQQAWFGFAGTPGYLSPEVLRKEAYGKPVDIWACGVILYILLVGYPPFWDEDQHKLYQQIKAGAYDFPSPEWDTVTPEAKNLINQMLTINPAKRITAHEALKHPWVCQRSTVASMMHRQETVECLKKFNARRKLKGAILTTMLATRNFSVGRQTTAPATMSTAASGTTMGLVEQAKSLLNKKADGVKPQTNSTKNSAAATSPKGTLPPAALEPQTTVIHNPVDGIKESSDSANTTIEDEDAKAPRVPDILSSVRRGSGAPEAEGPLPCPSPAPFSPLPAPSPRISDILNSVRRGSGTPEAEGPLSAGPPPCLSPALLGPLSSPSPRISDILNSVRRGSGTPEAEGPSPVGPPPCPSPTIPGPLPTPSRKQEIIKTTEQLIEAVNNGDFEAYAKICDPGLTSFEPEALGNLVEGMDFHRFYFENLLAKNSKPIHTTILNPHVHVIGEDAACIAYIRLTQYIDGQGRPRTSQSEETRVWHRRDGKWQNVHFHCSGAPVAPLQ

Structure (SMILES): O=C(NOC[C@H](O)CO)c1ccc(F)c(F)c1Nc1ccc(I)cc1F
- % of control [1]: 100%

Structure (SMILES): Cc1cc(CN)cc(C)c1-c1ncn(C)c1-c1cncn1C
- % activity ([2]; at 1 µM): > 90%
- % activity ([2]; at 10 µM): > 80%

Structure (SMILES): CNC(=O)Nc1ccc(-c2nc(N3CC4CCC(C3)O4)c3cnn(C4CCC5(CC4)OCCO5)c3n2)cc1
- % of control [3]: 22%

Structure (SMILES): CC[C@@H]1[C@H](F)C(=O)N[C@@H]1COc1nccc2cc(C(N)=O)c(OC)cc12 [ZIMLOVISERTIB]
- % of inhibition ([4]; at 0.01 µM): -5.4%
- % of inhibition ([4]; at 0.04 µM): 8.3%
- % of inhibition ([4]; at 0.2 µM): 8.4%
- % of inhibition ([4]; at 1 µM): 26.6%
- % of inhibition ([4]; at 5 µM): 51.5%

Structure (SMILES): CN(C)C/C=C/C(=O)Nc1ccc(C(=O)N2CCCC(Nc3ncc(Cl)c(-c4c[nH]c5ccccc45)n3)C2)cc1 (stereo not given)
- % of control [5]: 68%
